Consider eight compounds from patent US8227459B2, “Diamino-phenothiazinyl derivatives as antiviral treatments” (priority 2007, dated 2012).

Bounds are passed on as bounds.

Assay [1] deals with VEEV Trinidad virus. It is filed as cell-based, Venezuelan Equine Encephalitis virus.
The test system of assay [2] is DENV. Format: cell-based, Dengue virus.
In assay [3] the test system is RVFV. Format: cell-based, Rift Valley Fever virus.
The subject of assay [4] is WNV. It is filed as cell-based, West Nile virus.
In assay [5] the test system is LASV. It is filed as cell-based, Lhasa virus.
The subject of assay [6] is HCV. It is filed as cell-based, hepatitis C virus.
For assay [7], the system named is EBOV. It is filed as cell-based, Ebola virus.
Assay [8] deals with CHK. It is filed as cell-based, chikungunya virus.
Assay [9] concerns WEEV. It is filed as cell-based, Wester Equine Encephalitis virus.
Assay [10] concerns EEEV. Format: cell-based, Easter Equine Encephalitis virus.
Assay [11] has as its system PTV. It is filed as cell-based, Punta Toro Virus.
For assay [12], the system named is EBOV. Further details: species or system mice. The settings on record: mouse, in vivo, ip.
In assay [13] the test system is Marburg virus. Further details: species or system mice. The note with it: mouse, in vivo, ip.

With `CN(C)c1ccc2nc3ccc(N)cc3[s+]c2c1.[Cl-]` [Azure A], the “EC99 VEEV” value in assay [1] fell in the range of 0.1 to 1 µM. For the same compound, the “EC99 DENV” value in [2] is 1 µM.

For the compound `CNc1ccc2nc3ccc(N)cc3[s+]c2c1.[Cl-]` [Azure C], in [1], the “EC99 VEEV” value is 0.1 µM. In assay [2], the “EC99 DENV” value is less than 1 µM.

For `CN(C)c1cc(F)c2nc3c(F)cc(=[N+](C)C)cc-3sc2c1` [Compound 3], in [1], the “EC99 VEEV” value is less than 1 µM. The “EC99 RVFV” value in assay [3] was greater than 5 µM. For the same compound, the “EC99 WNV” value in [4] stood at 1 µM. The “EC99 LASV” value in assay [5] was greater than 5 µM.

In the case of `CN(C)c1cc(Cl)c2nc3c(Cl)cc(=[N+](C)C)cc-3sc2c1` [Compound 4], the “EC99 VEEV” value in assay [1] was less than 1 µM. For the same compound, in [3], the “EC99 RVFV” value is 0.05 µM. Further, the “EC99 WNV” value in assay [4] was less than 1 µM. The “EC99 LASV” value in assay [5] was less than 5 µM.

With `Cc1cc(=[N+](C)C)cc2sc3cc(N(C)C)cc(C)c3nc1-2.[Cl-]` [Dimethyl MB, dimethylmethylene blue], the “EC99 HCV” value in assay [6] was in the range of 0.2 to 0.5 µM. For the same compound, the “EC99 VEEV” value in assay [1] was in the range of 0.02 to 0.1 µM. Also, the “EC99 RVFV” value in assay [3] was less than 10 µM. In [7], the “EC99 EBOV” value was 0.025 to 0.1 µM. Further, the “EC99 WNV” value in assay [4] was in the range of 0.025 to 0.1 µM. In [5], the “EC99 LASV” value is less than 1 µM. For the same compound, the “EC99 CHK” value in assay [8] was in the range of 0.1 to 1 µM. Moreover, the “EC99 WEEV” value in [9] is 0.1 µM. For the same compound, in [10], the “EC99 EEEV” value was less than 0.1 µM. Besides, the “EC99 PTV” value in assay [11] was 5 µM. Further, in assay [12], the “prophylaxis of study group against EBOV” value is given as “complete prophylaxis” and the “survival, EBOV” value turned out to be 100%. For the same compound, in assay [13], the “day by which surviving mice had recovered, Marburg” value was no more than 9 days and the “prophylaxis of study group against Marburg” value amounted to 60%.

Regarding `CN(C)c1ccc2nc3ccc(=[N+](C)C)cc-3sc2c1` [Methylene Blue (MB), Methylene Blue], in [6], the “EC99 HCV” value fell in the range of 0.02 to 0.08 µM. In addition, the “EC99 VEEV” value in [1] is less than 1 µM. The “EC99 RVFV” value in assay [3] was greater than 5 µM. The “EC99 EBOV” value in [7] is greater than 3.2 µM. Besides, the “EC99 WNV” value in [4] was less than 1 µM. In addition, the “EC99 DENV” value in assay [2] turned out to be 10 µM. Also, in assay [8], the “EC99 CHK” value is 1 µM. Also, the “EC99 WEEV” value in assay [9] came out at 1 µM. Further, in [10], the “EC99 EEEV” value came to 1 µM.

For `Cc1cc2nc3ccc(N(C)C)cc3[s+]c2cc1N.[Cl-]` [Toluidine Blue], in [1], the “EC99 VEEV” value was less than 10 µM. In addition, in [2], the “EC99 DENV” value worked out at 1 µM.

As for Azure B, the “EC99 VEEV” value in assay [1] is 0.1 to 1 µM. Further, the “EC99 DENV” value in assay [2] was found to be 1 µM.
